Results taken from patent US10660877B2 (BRISTOL-MYERS SQUIBB COMPANY, priority 2016, dated 2020).
Where two headings read alike, the source gives them in different places.

Legend:
human TLR8 = human TLR8 (Homo sapiens (Human), UniProt Q9NR97); assay: TLR8 inhibition reporter assay (HEK-Blue cells, SEAP reporter, R848 stimulation);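 note: compounds tested from 0.05 nM to 50 µM, 22 h at 37 °C, SEAP measured with HEK-Blue Detection, inhibition relative to agonist plus DMSO versus a known inhibitor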
human TLR7 = human TLR7 (Homo sapiens (Human), UniProt Q9NYK1); assay: TLR7 inhibition reporter assay (HEK-Blue cells, SEAP reporter, gardiquimod stimulation); assay type: cell-based
human TLR9 = human TLR9 (Homo sapiens (Human), UniProt Q9NR96); assay: TLR9 inhibition reporter assay (HEK-Blue cells, SEAP reporter, ODN2006 stimulation);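 note: compounds tested over 0.05 nM to 50 µM, 22 h incubation, inhibition taken as SEAP signal drop from agonist plus DMSO wells toward a known inhibitor control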
[1] = read-out: TLR8 IC50, HEK-Blue cells overexpressing human TLR8, R848 15.9 μM
[2] = HEK-Blue cells overexpressing human TLR7, gardiquimod 7.5 μM
[3] = read-out: TLR9 IC50, HEK-Blue cells overexpressing human TLR9, ODN2006 5 nM
[4] = read-out: TLR8 IC50, HEK-Blue cells, R848 15.9 μM
[5] = HEK-Blue cells, gardiquimod 7.5 μM
[6] = read-out: TLR9 IC50, HEK-Blue cells, ODN2006 5 nM

Chain of human TLR7 (Q9NYK1 27-1049): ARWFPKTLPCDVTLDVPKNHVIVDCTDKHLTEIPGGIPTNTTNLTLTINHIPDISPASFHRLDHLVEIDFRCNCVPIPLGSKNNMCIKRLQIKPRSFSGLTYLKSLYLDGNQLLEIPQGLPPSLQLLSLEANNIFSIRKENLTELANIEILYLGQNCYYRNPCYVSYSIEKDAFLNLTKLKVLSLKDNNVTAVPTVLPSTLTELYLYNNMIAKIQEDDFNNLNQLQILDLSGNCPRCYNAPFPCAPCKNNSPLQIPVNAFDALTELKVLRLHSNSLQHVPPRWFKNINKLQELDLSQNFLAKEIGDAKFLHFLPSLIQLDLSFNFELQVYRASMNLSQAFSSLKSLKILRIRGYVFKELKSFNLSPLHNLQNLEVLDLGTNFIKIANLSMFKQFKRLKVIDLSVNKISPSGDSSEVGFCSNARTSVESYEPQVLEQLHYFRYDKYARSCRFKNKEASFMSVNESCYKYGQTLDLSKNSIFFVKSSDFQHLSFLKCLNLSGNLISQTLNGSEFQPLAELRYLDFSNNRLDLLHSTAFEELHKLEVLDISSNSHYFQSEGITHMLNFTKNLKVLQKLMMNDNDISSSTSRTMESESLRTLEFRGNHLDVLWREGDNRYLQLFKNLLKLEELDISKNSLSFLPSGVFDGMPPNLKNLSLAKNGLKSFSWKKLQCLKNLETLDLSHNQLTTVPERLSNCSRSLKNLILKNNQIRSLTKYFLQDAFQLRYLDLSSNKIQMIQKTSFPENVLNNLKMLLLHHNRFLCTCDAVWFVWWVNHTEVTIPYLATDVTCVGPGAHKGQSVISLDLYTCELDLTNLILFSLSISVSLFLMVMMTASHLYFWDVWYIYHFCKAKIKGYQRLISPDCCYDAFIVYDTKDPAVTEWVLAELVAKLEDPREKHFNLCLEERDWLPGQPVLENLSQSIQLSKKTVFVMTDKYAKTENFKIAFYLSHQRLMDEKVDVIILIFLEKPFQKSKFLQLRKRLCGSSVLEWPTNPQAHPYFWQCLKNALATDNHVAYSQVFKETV
Chain of human TLR8 (Q9NR97 27-1041): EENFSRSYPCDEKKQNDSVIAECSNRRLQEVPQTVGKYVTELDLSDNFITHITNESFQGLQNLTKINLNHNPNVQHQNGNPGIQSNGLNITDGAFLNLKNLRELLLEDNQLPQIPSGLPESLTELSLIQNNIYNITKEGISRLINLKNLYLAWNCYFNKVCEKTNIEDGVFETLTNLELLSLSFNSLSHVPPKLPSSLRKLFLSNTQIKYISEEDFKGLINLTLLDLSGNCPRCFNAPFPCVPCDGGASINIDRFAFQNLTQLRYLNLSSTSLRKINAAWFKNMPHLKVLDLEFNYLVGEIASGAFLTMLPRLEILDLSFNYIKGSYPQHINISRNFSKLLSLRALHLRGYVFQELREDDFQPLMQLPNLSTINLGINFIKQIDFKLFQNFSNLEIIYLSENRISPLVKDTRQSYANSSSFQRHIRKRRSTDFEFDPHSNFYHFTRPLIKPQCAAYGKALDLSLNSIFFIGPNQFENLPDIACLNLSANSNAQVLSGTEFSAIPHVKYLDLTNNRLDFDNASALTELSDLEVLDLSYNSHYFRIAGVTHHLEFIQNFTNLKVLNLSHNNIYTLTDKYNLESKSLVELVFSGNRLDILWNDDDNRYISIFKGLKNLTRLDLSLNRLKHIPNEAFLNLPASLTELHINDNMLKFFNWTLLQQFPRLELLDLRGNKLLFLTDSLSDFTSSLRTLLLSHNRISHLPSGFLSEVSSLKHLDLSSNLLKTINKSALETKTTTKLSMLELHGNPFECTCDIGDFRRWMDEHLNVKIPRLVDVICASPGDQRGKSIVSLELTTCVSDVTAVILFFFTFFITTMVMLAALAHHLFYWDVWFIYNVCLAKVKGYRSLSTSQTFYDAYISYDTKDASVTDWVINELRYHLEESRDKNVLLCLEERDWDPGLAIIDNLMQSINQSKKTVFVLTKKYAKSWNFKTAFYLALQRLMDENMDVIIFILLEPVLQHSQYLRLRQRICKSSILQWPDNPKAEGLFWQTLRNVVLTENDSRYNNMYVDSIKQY
Chain of human TLR9 (Q9NR96 26-1032): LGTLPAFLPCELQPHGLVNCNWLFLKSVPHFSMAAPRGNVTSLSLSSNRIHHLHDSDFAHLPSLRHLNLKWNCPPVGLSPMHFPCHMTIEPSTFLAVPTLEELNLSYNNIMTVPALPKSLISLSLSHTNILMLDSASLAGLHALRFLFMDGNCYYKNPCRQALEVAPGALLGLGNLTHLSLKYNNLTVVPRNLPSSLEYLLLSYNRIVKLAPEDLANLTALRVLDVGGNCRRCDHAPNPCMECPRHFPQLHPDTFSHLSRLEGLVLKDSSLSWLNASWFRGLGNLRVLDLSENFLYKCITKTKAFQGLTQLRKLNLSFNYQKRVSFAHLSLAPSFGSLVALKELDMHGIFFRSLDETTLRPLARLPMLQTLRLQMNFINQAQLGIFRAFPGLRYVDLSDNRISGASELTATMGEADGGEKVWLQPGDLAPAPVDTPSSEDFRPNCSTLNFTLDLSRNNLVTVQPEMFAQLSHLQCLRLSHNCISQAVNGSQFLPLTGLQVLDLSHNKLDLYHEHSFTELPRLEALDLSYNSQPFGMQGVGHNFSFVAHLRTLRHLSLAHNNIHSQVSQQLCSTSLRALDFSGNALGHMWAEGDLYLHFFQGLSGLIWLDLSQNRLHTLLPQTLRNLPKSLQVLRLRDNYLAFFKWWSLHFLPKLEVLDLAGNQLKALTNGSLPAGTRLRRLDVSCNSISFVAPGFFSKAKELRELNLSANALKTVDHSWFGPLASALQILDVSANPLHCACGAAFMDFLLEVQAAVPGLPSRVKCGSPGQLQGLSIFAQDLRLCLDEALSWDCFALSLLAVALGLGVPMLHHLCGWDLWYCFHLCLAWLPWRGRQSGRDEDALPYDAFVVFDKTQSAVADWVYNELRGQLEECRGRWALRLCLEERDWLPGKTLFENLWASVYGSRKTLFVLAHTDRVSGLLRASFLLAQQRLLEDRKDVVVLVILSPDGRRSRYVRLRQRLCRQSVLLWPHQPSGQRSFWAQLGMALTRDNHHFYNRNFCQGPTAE

Cc1cc(-c2[nH]c3ccc(C4CCN(C(=O)CN(C)C(C)C)CC4)cc3c2C(C)C)cc(C)n1 [Example 354, 1-(4-(2-(2,6-dimethylpyridin-4-yl)-3-isopropyl-1H-indol-5-yl)piperidin-1-yl)-2-(isopropyl(methyl)amino)ethan-1-one]
IC50 (human TLR8; [1]): 11.2 nM
IC50 (human TLR7; [2]): 3.5 nM
IC50 (human TLR9; [3]): 447 nM

CCc1c(-c2ccncc2)[nH]c2ccc(C3CCN(Cc4cnc(Nc5ccccn5)s4)CC3)cc12 [Example 822, 5-((4-(3-ethyl-2-(pyridin-4-yl)-1H-indol-5-yl)piperidin-1-yl)methyl)-N-(pyridin-2-yl)thiazol-2-amine]
IC50 (human TLR8; [4]): 12900 nM
IC50 (human TLR7; [5]): 841 nM
IC50 (human TLR9; [6]): 1090 nM

CCc1c(-c2cc(C)nc(C)c2)[nH]c2ccc(C3CCN(C(=O)CN(C)C)CC3)cc12 [Example 528, 2-(dimethylamino)-1-(4-(2-(2,6-dimethylpyridin-4-yl)-3-ethyl-1H-indol-5-yl)piperidin-1-yl)ethan-1-one]
IC50 (human TLR8; [1]): 50.9 nM
IC50 (human TLR7; [2]): 16 nM
IC50 (human TLR9; [3]): 150 nM

CCNC(=O)CN1CCC(c2ccc3[nH]c(-c4cc(C)nc(C)c4)c(C(C)C)c3c2)CC1 [Example 235, 2-(4-(2-(2,6-dimethylpyridin-4-yl)-3-isopropyl-1H-indol-5-yl)piperidin-1-yl)-N-ethylacetamide]
IC50 (human TLR8; TLR8 IC50, HEK-Blue cells overexpressing human TLR8, R848 15.9 μM): 14.1 nM
IC50 (human TLR7; [2]): 5.2 nM
IC50 (human TLR9; TLR9 IC50, HEK-Blue cells overexpressing human TLR9, ODN2006 5 nM): 965 nM

Cc1cc(-c2[nH]c3ccc(C4CCN(C(=O)CCn5nc(C)cc5C)CC4)cc3c2C(C)C)cc(C)n1 [Example 125, 3-(3,5-dimethyl-1H-pyrazol-1-yl)-1-(4-(2-(2,6-dimethylpyridin-4-yl)-3-isopropyl-1H-indol-5-yl)piperidin-1-yl)propan-1-one]
IC50 (human TLR8; [1]): 224 nM
IC50 (human TLR7; [2]): 47.4 nM
IC50 (human TLR9; [3]): 45600 nM

Cc1cc(-c2[nH]c3ccc(C4CCN(C(=O)C5(C)CC5)CC4)cc3c2C(C)C)ccn1 [Example 610, (4-(3-isopropyl-2-(2-methylpyridin-4-yl)-1H-indol-5-yl)piperidin-1-yl)(1-methylcyclopropyl)methanone]
IC50 (human TLR8; [1]): 163 nM
IC50 (human TLR7; [2]): 48.6 nM
IC50 (human TLR9; [3]): 47300 nM

Cc1cc(-c2[nH]c3ccc(C4CCN(C5CCOC5)CC4)cc3c2C(C)C)ccn1 (stereo not drawn) [Example 717, 3-isopropyl-2-(2-methylpyridin-4-yl)-5-(1-(tetrahydrofuran-3-yl)piperidin-4-yl)-1H-indole]
IC50 (human TLR8; [1]): 5.9 nM
IC50 (human TLR7; [2]): 15.8 nM
IC50 (human TLR9; [3]): 1590 nM

COCCNC(=O)CN1CCC(c2ccc3[nH]c(-c4cc(C)nc(C)c4)c(C(C)C)c3c2)CC1 [Example 231, 2-(4-(2-(2,6-dimethylpyridin-4-yl)-3-isopropyl-1H-indol-5-yl)piperidin-1-yl)-N-(2-methoxyethyl)acetamide]
IC50 (human TLR8; [1]): 10.1 nM
IC50 (human TLR7; [2]): 8.6 nM
IC50 (human TLR9; [3]): 1130 nM

CC(C)c1c(-c2ccnc(CN)c2)[nH]c2ccc(C3CCNCC3)cc12 [Example 14, (4-(3-isopropyl-5-(piperidin-4-yl)-1H-indol-2-yl)pyridin-2-yl)methanamine]
IC50 (human TLR8; [1]): 187 nM
IC50 (human TLR7; [2]): 423 nM
IC50 (human TLR9; [3]): 1200 nM

COCCOCCN1CCC(c2ccc3[nH]c(-c4cc(C)nc(C)c4)c(C(C)C)c3c2)CC1 [Example 324, 2-(2,6-dimethylpyridin-4-yl)-3-isopropyl-5-(1-(2-(2-methoxyethoxy)ethyl)piperidin-4-yl)-1H-indole]
IC50 (human TLR8; [1]): 4.4 nM
IC50 (human TLR7; [2]): 7.4 nM
IC50 (human TLR9; [3]): 413 nM

Cc1cc(-c2[nH]c3ccc(C4CCN(CC(=O)N(C)C5CCOC5)CC4)cc3c2C(C)C)cc(C)n1 (stereo not drawn) [Example 289, 2-(4-(2-(2,6-dimethylpyridin-4-yl)-3-isopropyl-1H-indol-5-yl)piperidin-1-yl)-N-methyl-N-(tetrahydrofuran-3-yl)acetamide]
IC50 (human TLR8; [1]): 16.9 nM
IC50 (human TLR7; [2]): 6 nM
IC50 (human TLR9; [3]): 697 nM

Cc1cc(-c2[nH]c3ccc(C4CCNCC4)cc3c2C(C)C)c([N+](=O)[O-])c(C)n1 [Example 27, 2-(2,6-dimethyl-3-nitropyridin-4-yl)-3-isopropyl-5-(piperidin-4-yl)-1H-indole]
IC50 (human TLR8; [1]): 8.9 nM
IC50 (human TLR7; [2]): 15.1 nM
IC50 (human TLR9; [3]): 2970 nM

Cc1cc(-c2[nH]c3ccc(C4CCN(Cc5ccn(C)n5)CC4)cc3c2C(C)C)c(C)cn1 [Example 689, 2-(2,5-dimethylpyridin-4-yl)-3-isopropyl-5-(1-((1-methyl-1H-pyrazol-3-yl)methyl)piperidin-4-yl)-1H-indole]
IC50 (human TLR8; [1]): 0.8 nM
IC50 (human TLR7; [2]): 23.2 nM
IC50 (human TLR9; [3]): 1440 nM

CC(=O)N(C)CCC(=O)N1CCC(c2ccc3[nH]c(-c4cc(C)nc(C)c4)c(C(C)C)c3c2)CC1 [Example 134, N-(3-(4-(2-(2,6-dimethylpyridin-4-yl)-3-isopropyl-1H-indol-5-yl)piperidin-1-yl)-3-oxopropyl)-N-methylacetamide]
IC50 (human TLR8; [1]): 90.3 nM
IC50 (human TLR7; [2]): 11.4 nM
IC50 (human TLR9; [3]): 34600 nM

COc1ncc(CN2CCC(c3ccc4[nH]c(-c5ccnc(C)c5F)c(C(C)C)c4c3)CC2)cn1 [Example 731, 2-(3-fluoro-2-methylpyridin-4-yl)-3-isopropyl-5-(1-((2-methoxypyrimidin-5-yl)methyl)piperidin-4-yl)-1H-indole]
IC50 (human TLR8; [1]): 2.7 nM
IC50 (human TLR7; [2]): 8.9 nM
IC50 (human TLR9; [3]): 1310 nM

Cc1cc(-c2[nH]c3ccc(C4CCN(Cc5cnc[nH]5)CC4)cc3c2C(C)C)ccn1 [Example 820, 5-(1-((1H-imidazol-5-yl)methyl)piperidin-4-yl)-3-isopropyl-2-(2-methylpyridin-4-yl)-1H-indole]
IC50 (human TLR8; [4]): 5.8 nM
IC50 (human TLR7; [5]): 71.5 nM
IC50 (human TLR9; [6]): 209 nM

Cc1cc(-c2[nH]c3ccc(C4CCN(Cc5ncn(C)n5)CC4)cc3c2C(C)C)c(C)cn1 [Example 723, 2-(2,5-dimethylpyridin-4-yl)-3-isopropyl-5-(1-((1-methyl-1H-1,2,4-triazol-3-yl)methyl)piperidin-4-yl)-1H-indole]
IC50 (human TLR8; [1]): 8.4 nM
IC50 (human TLR7; [2]): 78.4 nM
IC50 (human TLR9; [3]): 14500 nM

Cc1cc(-c2[nH]c3ccc(C4CCN(C(=O)CNCC(C)(C)C)CC4)cc3c2C(C)C)cc(C)n1 [Example 337, 1-(4-(2-(2,6-dimethylpyridin-4-yl)-3-isopropyl-1H-indol-5-yl)piperidin-1-yl)-2-(neopentylamino)ethan-1-one]
IC50 (human TLR8; [1]): 18.3 nM
IC50 (human TLR7; [2]): 6.7 nM
IC50 (human TLR9; [3]): 467 nM

Cc1cc(-c2[nH]c3ccc(C4CCN(C(=O)C(C)(C)C#N)CC4)cc3c2C(C)C)ccn1 [Example 615, 3-(4-(3-isopropyl-2-(2-methylpyridin-4-yl)-1H-indol-5-yl)piperidin-1-yl)-2,2-dimethyl-3-oxopropanenitrile]
IC50 (human TLR8; [1]): 243 nM
IC50 (human TLR7; [2]): 80.9 nM
IC50 (human TLR9; [3]): 12200 nM

Cc1cc(-c2[nH]c3ccc(C4CCN(C(=O)c5cscn5)CC4)cc3c2C(C)C)cc(C)n1 [Example 201, (4-(2-(2,6-dimethylpyridin-4-yl)-3-isopropyl-1H-indol-5-yl)piperidin-1-yl)(thiazol-4-yl)methanone]
IC50 (human TLR8; [1]): 84.1 nM
IC50 (human TLR7; [2]): 5 nM
IC50 (human TLR9; [3]): 5500 nM

Cc1cc(-c2[nH]c3cc(F)c(C4CCN(C)CC4)cc3c2C(C)C)cc(C)n1 [Example 828, 2-(2,6-dimethylpyridin-4-yl)-6-fluoro-3-isopropyl-5-(1-methylpiperidin-4-yl)-1H-indole]
IC50 (human TLR8; [4]): 4.8 nM
IC50 (human TLR7; [5]): 1.2 nM
IC50 (human TLR9; [6]): 267 nM

Cc1cc(-c2[nH]c3ccc(C4CCN(C(=O)CN(C)C)CC4)cc3c2C(C)C)cc(C)n1 [Example 98, 2-(dimethylamino)-1-(4-(2-(2,6-dimethylpyridin-4-yl)-3-isopropyl-1H-indol-5-yl)piperidin-1-yl)ethan-1-one]
IC50 (human TLR8; [1]): 8 nM
IC50 (human TLR7; [2]): 1.6 nM
IC50 (human TLR9; [3]): 579 nM

Cc1cc(-c2[nH]c3ccc(C4CCN(C(=O)C5(C)CCNCC5)CC4)cc3c2C(C)C)cc(C)n1 [Example 197, (4-(2-(2,6-dimethylpyridin-4-yl)-3-isopropyl-1H-indol-5-yl)piperidin-1-yl)(4-methylpiperidin-4-yl)methanone]
IC50 (human TLR8; [1]): 23.9 nM
IC50 (human TLR7; [2]): 2.8 nM
IC50 (human TLR9; [3]): 322 nM

Cc1cc(-c2[nH]c3ccc(C4CCN(CC(O)C(C)C)CC4)cc3c2C(C)C)cc(C)n1 (stereo not drawn) [Example 849, 1-(4-(2-(2,6-dimethylpyridin-4-yl)-3-isopropyl-1H-indol-5-yl)piperidin-1-yl)-3-methylbutan-2-ol]
IC50 (human TLR8; [4]): 2.3 nM
IC50 (human TLR7; [5]): 1.4 nM
IC50 (human TLR9; [6]): 291 nM

Cc1cc(-c2[nH]c3ccc(C4CCN(Cc5cncs5)CC4)cc3c2C(C)C)c(C)cn1 [Example 687, 5-((4-(2-(2,5-dimethylpyridin-4-yl)-3-isopropyl-1H-indol-5-yl)piperidin-1-yl)methyl)thiazole]
IC50 (human TLR8; [1]): 1.8 nM
IC50 (human TLR7; [2]): 25.6 nM
IC50 (human TLR9; [3]): 4920 nM

Cc1cc(-c2[nH]c3ccc(C4CCN(CC(=O)N5CCS(=O)(=O)CC5)CC4)cc3c2C(C)C)cc(C)n1 [Example 281, 2-(4-(2-(2,6-dimethylpyridin-4-yl)-3-isopropyl-1H-indol-5-yl)piperidin-1-yl)-1-(1,1-dioxidothiomorpholino)ethan-1-one]
IC50 (human TLR8; [1]): 2 nM
IC50 (human TLR7; [2]): 1.2 nM
IC50 (human TLR9; [3]): 129 nM

Cc1cc(-c2[nH]c3ccc(C4CCN(Cc5ncco5)CC4)cc3c2C(C)C)c(C)cn1 [Example 699, 2-((4-(2-(2,5-dimethylpyridin-4-yl)-3-isopropyl-1H-indol-5-yl)piperidin-1-yl)methyl)oxazole]
IC50 (human TLR8; [1]): 4.2 nM
IC50 (human TLR7; [2]): 38.7 nM
IC50 (human TLR9; [3]): 40300 nM

COC[C@H](O)CN1CCC(c2ccc3[nH]c(-c4cc(C)nc(C)c4)c(C(C)C)c3c2)CC1 [Example 852, (R)-1-(4-(2-(2,6-dimethylpyridin-4-yl)-3-isopropyl-1H-indol-5-yl)piperidin-1-yl)-3-methoxypropan-2-ol]
IC50 (human TLR8; [4]): 3.8 nM
IC50 (human TLR7; [5]): 4.1 nM
IC50 (human TLR9; [6]): 631 nM
